In test [1] the target is LSD1 (Homo sapiens, UniProt O60341). The test is described as follows: LSD1 fluorescence coupling enzyme assay (HRP/Amplex Red, H3(1-21)K4me2 peptide), 10-dose IC50. The conditions noted are these: 10 μM histone H3(1-21)K4me2 peptide substrate, 3-fold serial dilution from 100 μM. It counts as biochemical. Summed up: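 Fluorescence coupled assay: LSD1 demethylation of 10 μM H3(1-21)K4me2 peptide produces FAD-dependent H2O2, detected via HRP/Amplex Red as resorufin (Ex/Em 535/590 nm). IC50 from 10 doses, 3-fold serial dilution from 100 μM, in duplicate.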

Test [2] relates to MV4;11 cells. Briefly: Cell Titer-Glo cell growth inhibition in MV4;11 cell line (Day 5 / Day 10). In kind it is cell-based. The protocol:
Cell growth inhibition against MV4;11 cells was confirmed for the synthetic compounds. The Cell Titer-Glo Luminescent Cell Viability Assay (Promega, USA) was used to determine the number of viable cells in culture based on quantitation of the ATP present, which signals the presence of metabolically active cells. This assay was run in a 96-well plate format arrayed in a 10-point dose curve, ranging from 0 to 50 µM with 4-fold dilutions for each compound. Cells are seeded on Day 0 at 3750 cells per well. At Day 5, a portion of each well is assayed for viability according to the Cell Titer-Glo protocol. Briefly, cells/plates were centrifuged at 1100×g for 5 minutes. 100 μL of media was removed from each well and replaced with 100 μL of CellTiter-Glo. The plates were shaken at room temperature for 10 minutes and measured on a luminescence plate reader. Another portion of each well from the Day 5 plate is used to seed a new 96 plate containing fresh compound and media set up in the equivalent 10-point dose curve array in order to continue the cell growth inhibition assay for another 5 days. A final timepoint is collected at Day 10 using the Cell Titer-Glo protocol. Luminescence was detected on an En Vision® Multilabel Plate Reader (Perkin Elmer, Waltham, Mass.) and IC50 determination was made using Graph Pad Prism software.

Where [3] appears, read: Homo sapiens, MV4-11, 120 h, Day 5, read-out: Cell Titer-Glo IC50 (5 d).
[4] abbreviates: Homo sapiens, MV4-11, 240 h, Day 10, read-out: Cell Titer-Glo IC50 (10 d).

By IC50 is commonly meant the midpoint of a concentration-inhibition curve.

Where two headings read alike, the source gives them in different places.

As to `N#Cc1ccc(-c2cc(NC[C@H]3CCC[C@H](N)C3)nn2-c2ccc3[nH]ncc3c2)cc1F` [Example 65, 4-(3-((((1S,3S)-3-aminocyclohexyl)methyl)amino)-1-(1H-indazol-5-yl)-1H-pyrazol-5-yl)-2-fluorobenzonitrile], the half-maximal inhibitory concentration (IC50) in test [1] is below 500 nM; in test [2] (setting [3]) it was 500 to 1000 nM; in test [2] (setting [4]), below 500 nM.

With `COc1ccc(-n2nc(NC[C@H]3CCC[C@@H](CN)C3)cc2-c2ccc(C#N)c(F)c2)cc1` [Example 77, 4-(3-((((1S,3R)-3-(aminomethyl)cyclohexyl)methyl)amino)-1-(4-methoxyphenyl)-1H-pyrazol-5-yl)-2-fluorobenzonitrile], the 50% inhibitory concentration (IC50) in test [1], in test [2] (setting [3]) and in test [2] (setting [4]) was 1000 to 10000 nM throughout.

Regarding `Cn1ncc2cc(-n3nc(NC[C@@H]4CN5CCC4CC5)cc3-c3ccc(C#N)c(F)c3)ccc21` (single isomer, unassigned) [Example 31a], the half-inhibitory concentration (IC50) in test [1] was below 500 nM; in test [2] (Homo sapiens, 120 h, Day 5, read-out: Cell Titer-Glo IC50 (5 d)), 1000 to 10000 nM; in test [2] (Homo sapiens, 240 h, Day 10, read-out: Cell Titer-Glo IC50 (10 d)), below 500 nM.

`Cc1ccc(-n2nc(NC[C@@H]3CCC[C@@H](N)C3)cc2-c2ccc(C#N)c(F)c2)cc1` [Example 12RR, 4-(3-((((1R,3R)-3-aminocyclohexyl)methyl)amino)-1-(p-tolyl)-1H-pyrazol-5-yl)-2-fluorobenzonitrile]: the IC50 was 500 to 1000 nM in test [1], 1000 to 10000 nM in test [2] (setting [3]) and below 500 nM in test [2] (setting [4]).

Turning to `Cn1cc2cc(-n3nc(NC[C@H]4CCC[C@H](N)C4)cc3-c3ccc(C#N)c(F)c3)ccc2n1` [Example 13SS, 4-(3-((((1S,3S)-3-aminocyclohexyl)methyl)amino)-1-(2-methyl-2H-indazol-5-yl)-1H-pyrazol-5-yl)-2-fluorobenzonitrile], the IC50 in test [1] and in test [2] (setting [4]) was below 500 nM throughout.

As to `N#Cc1ccc(-c2cc(NC[C@H]3CCC[C@H](N)C3)nn2-c2ccc(-c3cnn(CCCO)c3)cc2)cc1F` [Example 58, 4-(3-((((1S,3S)-3-aminocyclohexyl)methyl)amino)-1-(4-(1-(3-hydroxypropyl)-1H-pyrazol-4-yl)phenyl)-1H-pyrazol-5-yl)-2-fluorobenzonitrile], the half-maximal inhibitory concentration (IC50) in test [1], in test [2] (setting [3]) and in test [2] (setting [4]) was below 500 nM in each case.

`Cn1cc2cc(-n3nc(NC[C@@H]4CCC[C@@H](N)C4)cc3-c3ccc(C#N)c(F)c3)ccc2n1` [Example 13RR, 4-(3-((((1R,3R)-3-aminocyclohexyl)methyl)amino)-1-(2-methyl-2H-indazol-5-yl)-1H-pyrazol-5-yl)-2-fluorobenzonitrile]: the IC50 is below 500 nM in test [1], 1000 to 10000 nM in test [2] (setting [3]) and below 500 nM in test [2] (setting [4]).

On to `Cn1cc2ccc(-n3nc(NC[C@H]4CCC[C@H](N)C4)cc3-c3ccc(C#N)c(F)c3)cc2n1` [Example 67, 4-(3-((((1S,3S)-3-aminocyclohexyl)methyl)amino)-1-(2-methyl-2H-indazol-6-yl)-1H-pyrazol-5-yl)-2-fluorobenzonitrile], for which the IC50 in test [1] was 500 to 1000 nM; in test [2] (setting [3]), below 500 nM; in test [2] (setting [4]), below 500 nM.

For the molecule `N#Cc1ccc(-c2cc(NCC3CCCNCC3)nn2-c2ccc(N3CCCC3)cc2)cc1F` (centres unmarked) [Example 24, 4-(3-((azepan-4-ylmethyl)amino)-1-(4-(pyrrolidin-1-yl)phenyl)-1H-pyrazol-5-yl)-2-fluorobenzonitrile], the IC50 in test [1], in test [2] (setting [3]) and in test [2] (setting [4]) was below 500 nM in each case.

In the case of `Cn1cc2cc(-n3nc(NC[C@H]4CCCNC4)cc3-c3ccc(C#N)c(F)c3)ccc2n1` (single isomer, unassigned) [Example 9b], the half-maximal inhibitory concentration (IC50) in test [1] and in test [2] (setting [3]) was below 500 nM in each case.

Turning to `COc1ccc(-n2nc(NC[C@H]3CCC[C@@H](N)C3)cc2-c2ccc(C#N)c(F)c2)cc1` (racemic) [Example 5, rac-4-(3-((((15,3R)-3-aminocyclohexyl)methyl)amino)-1-(4-methoxyphenyl)-1H-pyrazol-5-yl)-2-fluorobenzonitrile], the 50% inhibitory concentration (IC50) in test [1] and in test [2] (setting [3]) was below 500 nM each time.

Regarding `Cn1nnc2ccc(-n3nc(NC[C@H]4CCC[C@H](N)C4)cc3-c3ccc(C#N)c(F)c3)cc21` [Example 74, 4-(3-((((15,3S)-3-aminocyclohexyl)methyl)amino)-1-(1-methyl-1H-benzo[d][1,2,3]triazol-6-yl)-1H-pyrazol-5-yl)-2-fluorobenzonitrile], the concentration for half-maximal inhibition (IC50) is 1000 to 10000 nM in test [1], 1000 to 10000 nM in test [2] (setting [3]) and below 500 nM in test [2] (setting [4]).

Take `CN[C@@H]1CCCC(CNc2cc(-c3ccc(C#N)c(F)c3)n(-c3ccc(OC)cc3)n2)C1` (single isomer, unassigned) [Example 32b]: the IC50 in test [1] and in test [2] (setting [3]) was 1000 to 10000 nM in each case.

On to `Cn1ncc2cc(-n3nc(NC[C@H]4CCC[C@@H](N)C4)cc3-c3ccc(C#N)c(F)c3)ccc21` (single isomer, unassigned) [Example 7a], for which the IC50 in test [1] lay in the range of 500 to 1000 nM; in test [2] (setting [3]) it was 1000 to 10000 nM.

`N#Cc1ccc(-c2cc(NC[C@@H]3CCC[C@@H](N)C3)nn2-c2ccc3nn(CCO)cc3c2)cc1F` [Example 70, 4-(3-((((1R,3R)-3-aminocyclohexyl)methyl)amino)-1-(2-(2-hydroxyethyl)-2H-indazol-5-yl)-1H-pyrazol-5-yl)-2-fluorobenzonitrile]: the IC50 in test [1] is below 500 nM; in test [2] (setting [3]), 1000 to 10000 nM; in test [2] (setting [4]), below 500 nM.

Consider `N#Cc1ccc(-c2cc(NC[C@@H]3CCCNCC3)nn2-c2ccc(C(=O)N3CCCC3)cc2)cc1F` (single isomer, unassigned) [Example 25a], for which the IC50 in test [1], in test [2] (setting [3]) and in test [2] (setting [4]) was below 500 nM throughout.

Regarding `Cn1cc2cc(-n3nc(NC[C@H]4CCC[C@H](N)C4)c(Cl)c3-c3ccc(C#N)c(F)c3)ccc2n1` [Example 37, 4-(3-((((1S,3S)-3-aminocyclohexyl)methyl)amino)-4-chloro-1-(2-methyl-2H-indazol-5-yl)-1H-pyrazol-5-yl)-2-fluorobenzonitrile], the concentration for half-maximal inhibition (IC50) in test [1], in test [2] (setting [3]) and in test [2] (setting [4]) was below 500 nM each time.

For the molecule `N#Cc1ccc(-c2cc(NC[C@H]3CCCNCC3)nn2-c2ccc(N3CCCC3)cc2)cc1F` (single isomer, unassigned) [Example 24b], the IC50 in test [1], in test [2] (setting [3]) and in test [2] (setting [4]) was below 500 nM each time.

Turning to `CO[C@H]1CCN(c2ccc(-n3nc(NC[C@H]4CCC[C@H](N)C4)cc3-c3ccc(C#N)c(F)c3)c(F)c2)C1` [Example 20, 4-(3-((((1S,3S)-3-aminocyclohexyl)methyl)amino)-1-(2-fluoro-4-((S)-3-methoxypyrrolidin-1-yl)phenyl)-1H-pyrazol-5-yl)-2-fluorobenzonitrile], the half-maximal inhibitory concentration (IC50) in test [1] and in test [2] (setting [4]) was below 500 nM in each case.

On to `Cn1ncc2cc(-n3nc(NC[C@@H]4CCC[C@@H](N)C4)cc3-c3ccc(C#N)c(F)c3)ccc21` (single isomer, unassigned) [Example 7d], for which the IC50 in test [1], in test [2] (setting [3]) and in test [2] (setting [4]) was below 500 nM in each case.

On to `COc1ccc(-n2nc(NCC3CC3N)cc2-c2ccc(C#N)c(F)c2)cc1` (single isomer, unassigned) [Example 29b, 4-(3-(((2-aminocyclopropyl)methyl)amino)-1-(4-methoxyphenyl)-1H-pyrazol-5-yl)-2-fluorobenzonitrile], for which the IC50 in test [1] is below 500 nM; in test [2] (Day 5, read-out: Cell Titer-Glo IC50 (5 d)) it was 1000 to 10000 nM; in test [2] (Day 10, read-out: Cell Titer-Glo IC50 (10 d)) it was below 500 nM.

Turning to `N#Cc1ccc(-c2cc(NC[C@H]3CCC[C@H](N)C3)nn2-c2ccc(-n3ccnn3)cc2)cc1F` [Example 61, 4-(1-(4-(1H-1,2,3-triazol-1-yl)phenyl)-3-((((1S,3S)-3-aminocyclohexyl)methyl)amino)-1H-pyrazol-5-yl)-2-fluorobenzonitrile], the IC50 in test [1], in test [2] (setting [3]) and in test [2] (setting [4]) was below 500 nM in each case.

As for `COC1CCN(c2ccc(-n3nc(NC[C@H]4CCC[C@H](N)C4)cc3-c3ccc(C#N)c(F)c3)cc2)CC1` [Example 43, 4-(3-((((1S,3S)-3-aminocyclohexyl)methyl)amino)-1-(4-(4-methoxypiperidin-1-yl)phenyl)-1H-pyrazol-5-yl)-2-fluorobenzonitrile], the IC50 in test [1] and in test [2] (setting [4]) was below 500 nM throughout.

Consider `COc1ccc(-n2nc(NCC3CCCNCC3)cc2-c2ccc(C#N)c(F)c2)cc1` (single isomer, unassigned) [Example 22a, 4-(3-((azepan-4-ylmethyl)amino)-1-(4-methoxyphenyl)-1H-pyrazol-5-yl)-2-fluorobenzonitrile], for which the IC50 in test [1], in test [2] (setting [3]) and in test [2] (setting [4]) was below 500 nM in each case.

The values above are taken from patent US20250032454A1, “KDM1A INHIBITORS FOR THE TREATMENT OF DISEASE” (Imago Biosciences, Inc., priority 2021, published 2025).
